Assay results: patent US5532236A, “[1,2,4]triazolo[4,3-a]quinoxaline compounds” (priority 1993, dated 1996)

Tests used:
[1] = system: NMDA (N-methyl-D-aspartate) receptors; conditions: cited from earlier work
kainate receptors = conditions: cited from earlier work
AMPA receptors = conditions: cited from earlier work
AMPA type receptors = test: 3H-AMPA binding (Test 1); conditions: rat cerebral cortical membrane homogenate; 5 nM 3H-AMPA; pH 7.1; 0° C., 30 min; read-out: TEST 1 IC50 (displacement of 50% of the specific binding of 3H-AMPA)
Excerpt: AMPA receptor binding may be studied by using ^3 H-AMPA as radioligand.
The pharmacological properties of the compounds of the present invention can be illustrated by determining their capability for displacing radioactively labelled 2-amino-3-hydroxy-5-methyl-4-isoxazolepropionic acid (AMPA) from the AMPA type receptors.
The displacement activity of the compounds may be shown by determining the IC50 value which represents the concentration (μM) which causes a displacement of 50% of the specific binding of ^3 H-AMPA.
^3 H-AMPA binding (Test 1)
500 μl of thawed rat cerebral cortical membrane homogenate in Tris-HCl (30 mM), CaCl2 (2.5 mM) and KSCN (100 mM) pH 7.1 were incubated at 0° C. for 30 min. with 25 μl ^3 H-AMPA (5 nM final concentration) and the test compound and buffer. Nonspecific binding was determined by incubation with L-glutamic acid (600 μM final concentration). The binding reaction was terminated by adding 5 ml of ice-cold buffer followed by filtration through Whatman GF/C glass fibre filters and 2×5 ml wash with ice-cold buffer. Bound radioactivity was measured by scintillation counting. IC50 was determined by Hill analysis of at least four concentrations of test compound.

[2] = system: quisqualic acid stimulated spreading depression in chicken retina; test: Spreading depression (Test 2): antagonism of quisqualic acid stimulated spreading depression in chicken retina; assay type: cell-based; conditions: Gallus gallus, 0.25 h, quisqualate 1 μg/ml, 26° C., 15 min incubation with test compound, read-out: TEST 2 IC50 (50% maximal inhibition of quisqualic acid stimulated spreading depression)
Excerpt: The influence of glutamic acid analogues on secondary effects of glutamate receptor interactions may be studied in vitro by using the phenomenon of spreading depression in chicken retina. Such experiments will provide information as to the efficacies (agonist/antagonist) of the test substances. This is in contrast to binding studies, which only provide information on the affinities of the compounds for the receptor.
The pharmacological properties of the compounds of the present invention can be illustrated by determining their capability for displacing radioactively labelled 2-amino-3-hydroxy-5-methyl-4-isoxazolepropionic acid (AMPA) from the AMPA type receptors. […]
The eyes were initially incubated in normal P.S.S. for 15-30 min. and then transferred to P.S.S. containing quisqualate (1 μg/ml). […] The time taken for an S.D. to start in each eye was measured.
After a further 15 min. of incubation in normal P.S.S. the eyes were transferred to normal P.S.S. containing the test compound and incubated for 15 min. […] The time taken for an S.D. to start in each eye was measured again. The eyes were then placed back in normal P.S.S. and after 15 min. the time taken for S.D. to start was measured again, in order to assess the degree of recovery from any drug effects. […]

In the case of `O=C(O)C1CN(CCCP(=O)(O)O)CCN1` (racemic) [CPP, 3-[(±)-2-carboxy-piperazin-4-yl]-propyl-1-phosphonic acid], the “antagonist activity at NMDA receptors” value [1] is listed as “most potent and selective antagonists”.

For `O=C(O)[C@@H]1CCCN[C@H]1C(=O)O` (relative stereo) [trans-2,3-PDA, trans-2,3-piperidine dicarboxylic acid], the “agonist activity on NMDA receptors” value [1] is listed as “strong to moderate agonist activity”.

For `N[C@@H](CCC(=O)NCC(=O)O)C(=O)O` [3-glutamyl-glycine], the “antagonism / selectivity at kainate receptors” value (kainate receptors; O. Goldberg et al. 1981) is listed as “some selectivity for kainate receptors”.

In the case of `Cc1onc(O)c1CC(N)C(=O)O` (stereo not drawn) [AMPA, 2-amino-3-hydroxy-5-methyl-4-isoxazolepropionic acid], the “agonist activity at AMPA receptors” value (AMPA receptors) is given as “activated selectively”.

In the case of `N[C@H](CCCC(=O)O)C(=O)O` [D-2-amino-adipic acid], the “antagonist activity at NMDA receptors” value [1] is listed as “moderate antagonist activity”.

For `N[C@H](CCCP(=O)(O)O)C(=O)O` [D-APV, 2-amino-5-phosphono-valeric acid], the “antagonist activity at NMDA receptors” value [1] is given as “most potent and selective antagonists”.

In the case of `N[C@H](CCC(=O)O)C(=O)O` [D-glutamic acid], the “agonist activity on NMDA receptors” value [1] is listed as “strong to moderate agonist activity”.

Work on `O=c1[nH]c2cc(-n3ccnc3)ccc2n2c(=O)[nH]nc12` [Example 1, 7-(1H-Imidazol-1-yl)[1,2,4]triazolo[4,3-a]quinoxaline-1,4(2H,5H)-dione] yielded an IC50 (AMPA type receptors) of 0.18 µM and an IC50 [2] of 3.9 µM.

Compound `O=c1[nH]c2cc(-n3ccnc3)c(C(F)(F)F)cc2n2c(=O)[nH]nc12` [Example 2, 7-(1H-Imidazol-1-yl)-8-trifluoromethyl[1,2,4]triazolo[4,3-a]quinoxaline-1,4(2H,5H)-dione] has an IC50 (AMPA type receptors) of 1.7 µM and an IC50 [2] of 4.8 µM.

In the case of `CCOC(=O)CC[C@H](N)C(=O)OCC` [GDEE, Glutamic acid diethyl ester], the “antagonist activity at AMPA receptors” value (AMPA receptors) is given as “selective but very weak antagonist” and the “sensitivity of excitatory responses to kainic acid to antagonism” value (kainate receptors) is given as “relatively insensitive”.

For `N[C@H](C(=O)O)c1cc(=O)[nH]o1` [Ibotenic acid], the “agonist activity on NMDA receptors” value [1] is listed as “strong to moderate agonist activity”.

For `N[C@@H](CCC(=O)O)C(=O)O` [L-glutamic acid], the “agonist activity at AMPA receptors” value (AMPA receptors) is listed as “potent agonists”.

For `N[C@@H](CCS(=O)(=O)O)C(=O)O` [L-homocysteic acid], the “agonist activity on NMDA receptors” value [1] is listed as “strong to moderate agonist activity”.

For `N[C@H](CCC[C@H](N)C(=O)O)C(=O)O` [diaminopimelic acid], the “antagonist activity at NMDA receptors” value [1] is given as “moderate antagonist activity”.

For `N[C@@H](Cn1oc(=O)[nH]c1=O)C(=O)O` [quisqualic acid], the “agonist activity at AMPA receptors” value (AMPA receptors) is listed as “potent agonists”.
